Read-outs that look alike come from different tables or passages of the source.
Columns and labels:
Assay type in all cases: cell-based
[1] = test system: E. coli M50; experiment: Quantitative drug diffusion assay (disc, zone of inhibition, CLSI); parameters: key to Interpretation of zone as per CLSI recommendations: R: Resistant; I: Intermediate; S: Sensitive (Interpretation as per CLSI recommendations, 2010)
Excerpt: (§1) Activity of cefepime in combination with tazobactam and various penicillins in combination with respective ESBL inhibitors was also investigated against highly resistant ESBL strains in quantitative drug diffusion assay performed as per CLSI recommendations (Clinical and Laboratory Standards Institute (CLSI), performance Standards for Antimicrobial Susceptibility Testing, 20th Informational Supplement, M 100-S20, Volume 30, No. 1, 2010).
(§2) In a typical study, overnight grown bacterial cultures after appropriate dilution were seed inoculated in the molten, cooled agar media and plates poured. Antibiotics containing 6 mm diameter discs were place on the top of the agar surface. Zone of inhibition based observation was performed after 16-18 h of incubation at 35±2° C. in ambient air. The overall procedure was performed as per CLSI recommendations (Table 5 and 6). These assays are routinely used in determining possibility of treating a particular infection using antibiotic and/or their combinations. For example, in case of treating an infection caused by E. coli (M138) using Augmentin® [commercially available combination: Amoxicillin (500 mg)+Clavulanic acid (125 mg)], the zone inhibition values need to be in the sensitive (S) range.

[2] = test system: E. coli B-123; experiment: as above; parameters: key to Interpretation of zone as per CLSI recommendations: R: Resistant; I: Intermediate; S: Sensitive (Interpretation as per CLSI recommendations, 2010)
Excerpt: as §1, §2

[3] = test system: E. coli 7MP; experiment: as above; parameters: key to Interpretation of zone as per CLSI recommendations: R: Resistant; I: Intermediate; S: Sensitive (Interpretation as per CLSI recommendations, 2010)
Excerpt: as §1, §2

[4] = test system: E. coli B-89; experiment: as above; parameters: key to Interpretation of zone as per CLSI recommendations: R: Resistant; I: Intermediate; S: Sensitive (Interpretation as per CLSI recommendations, 2010)
Excerpt: as §1, §2

[5] = test system: E. coli M-138; experiment: as above; parameters: key to Interpretation of zone as per CLSI recommendations: R: Resistant; I: Intermediate; S: Sensitive (Interpretation as per CLSI recommendations, 2010)
Excerpt: as §1, §2

[6] = test system: E. coli S-112; experiment: as above; parameters: key to Interpretation of zone as per CLSI recommendations: R: Resistant; I: Intermediate; S: Sensitive (Interpretation as per CLSI recommendations, 2010)
Excerpt: as §1, §2

[7] = test system: E. coli M50; experiment: MIC by agar dilution (CLSI) against highly resistant ESBL strain
Method: (§3) The results on activity of cefepime and other cephalosporin antibacterial agents in combination with tazobactam against highly resistant ESBL strains are given Table 1. In a typical study, overnight grown bacterial cultures were diluted appropriately and inoculated on the agar media containing doubling dilutions of the antibiotic. Observation for growth or no growth was performed after 16-20 h of incubation at 35±2° C. in ambient air. The overall procedure was performed as per Clinical and Laboratory Standards Institute (CLSI) recommendations. This experimental was followed for Examples 2-4 and 6 below (Table 2-4 and 7).

[8] = test system: E. coli 7MP; experiment: as above; details: E. coli 7MP
Method: as §3

[9] = test system: E. cloacae M-20; experiment: as above; details: E. cloacae M-20
Method: as §3

[10] = test system: E. coli B123; experiment: as above; details: for Activity (MIC, method of Example 1), Table 7: E. coli B-123; for MIC: Escherichia coli, B123, E. coli B123, read-out: MIC
Method: as §3

[11] = test system: E. coli B-89; experiment: as above; details: E. coli B-89
Method: as §3

[12] = ESBL inhibitor 0 mcg (antibiotic alone)
[13] = Table 6, with Tazobactam 10 mcg
[14] = Escherichia coli, 20 h, Tazobactam 0 mcg (antibiotic alone), read-out: MIC
[15] = Escherichia coli, 7MP, 20 h, Tazobactam 0 mcg (antibiotic alone), read-out: MIC
[16] = Enterobacter cloacae, M20, 20 h, Tazobactam 0 mcg (antibiotic alone), read-out: MIC
[17] = Tazobactam 0 mcg (antibiotic alone)
[18] = Escherichia coli, B89, 20 h, Tazobactam 0 mcg (antibiotic alone), read-out: MIC

CO/N=C(\C(=O)N[C@@H]1C(=O)N2C(C(=O)[O-])=C(C[n+]3cccc4c3CCC4)CS[C@H]12)c1csc(N)n1 [Cefpirome]
Zone of Inhibition [1, 12]: Nil | Interpretation of zone as per CLSI recommendations ([1]; Table 6, ESBL inhibitor 0 mcg): (R) | Interpretation of zone as per CLSI recommendations [1, 13]: (S) | Zone of Inhibition ([1]; with Tazobactam 10 mcg): 22 mm | Zone of Inhibition [2, 12]: 8 mm | Interpretation of zone as per CLSI recommendations ([2]; Table 6, ESBL inhibitor 0 mcg): (R) | Interpretation of zone as per CLSI recommendations [2, 13]: (S) | Zone of Inhibition ([2]; with Tazobactam 10 mcg): 20 mm | Zone of Inhibition [3, 12]: 11 mm | Interpretation of zone as per CLSI recommendations ([3]; Table 6, ESBL inhibitor 0 mcg): (R) | Interpretation of zone as per CLSI recommendations [3, 13]: (S) | Zone of Inhibition ([3]; with Tazobactam 10 mcg): 18.5 mm | Zone of Inhibition [4, 12]: Nil | Interpretation of zone as per CLSI recommendations ([4]; Table 6, ESBL inhibitor 0 mcg): (R) | Interpretation of zone as per CLSI recommendations [4, 13]: (S) | Zone of Inhibition ([4]; with Tazobactam 10 mcg): 17.5 mm | Zone of Inhibition [5, 12]: Nil | Interpretation of zone as per CLSI recommendations ([5]; Table 6, ESBL inhibitor 0 mcg): (R) | Interpretation of zone as per CLSI recommendations [5, 13]: (S) | Zone of Inhibition ([5]; with Tazobactam 10 mcg): 21 mm | Zone of Inhibition [6, 12]: 15 mm | Interpretation of zone as per CLSI recommendations ([6]; Table 6, ESBL inhibitor 0 mcg): (I) | Interpretation of zone as per CLSI recommendations [6, 13]: (S) | Zone of Inhibition ([6]; with Tazobactam 10 mcg): 20 mm | MIC [7, 14]: > 64 µg/mL | MIC ([7]; with Tazobactam 4 mcg): 2 µg/mL | MIC ([7]; with Tazobactam 8 mcg): 2 µg/mL | Activity (MIC, method of Example 1), Table 7 ([8]; antibiotic alone): > 64 µg/mL | Activity (MIC, method of Example 1), Table 7 ([8]; with Clavulanic acid 4 mcg): 16 µg/mL | Activity (MIC, method of Example 1), Table 7 ([8]; with Clavulanic acid 8 mcg): 8 µg/mL | Activity (MIC, method of Example 1), Table 7 ([8]; with Sulbactam 4 mcg): 16 µg/mL | Activity (MIC, method of Example 1), Table 7 ([8]; with Sulbactam 8 mcg): 16 µg/mL | Activity (MIC, method of Example 1), Table 7 ([8]; with Tazobactam 4 mcg): 8 µg/mL | MIC ([8]; with Tazobactam 4 mcg): 8 µg/mL | MIC ([8]; with Tazobactam 8 mcg): 4 µg/mL | Activity (MIC, method of Example 1), Table 7 ([8]; with Tazobactam, (4 mcg)): 4 µg/mL | MIC [8, 15]: > 64 µg/mL | Activity (MIC, method of Example 1), Table 7 ([9]; antibiotic alone): > 64 µg/mL | Activity (MIC, method of Example 1), Table 7 ([9]; with Clavulanic acid 4 mcg): 16 µg/mL | Activity (MIC, method of Example 1), Table 7 ([9]; with Clavulanic acid 8 mcg): 8 µg/mL | Activity (MIC, method of Example 1), Table 7 ([9]; with Sulbactam 4 mcg): 32 µg/mL | Activity (MIC, method of Example 1), Table 7 ([9]; with Sulbactam 8 mcg): 16 µg/mL | Activity (MIC, method of Example 1), Table 7 ([9]; with Tazobactam 4 mcg): 8 µg/mL | MIC ([9]; with Tazobactam 4 mcg): 8 µg/mL | MIC ([9]; with Tazobactam 8 mcg): 4 µg/mL | Activity (MIC, method of Example 1), Table 7 ([9]; with Tazobactam, (4 mcg)): 4 µg/mL | MIC [9, 16]: > 64 µg/mL | Activity (MIC, method of Example 1), Table 7 ([10]; antibiotic alone): > 64 µg/mL | Activity (MIC, method of Example 1), Table 7 ([10]; with Clavulanic acid 4 mcg): 16 µg/mL | Activity (MIC, method of Example 1), Table 7 ([10]; with Clavulanic acid 8 mcg): 8 µg/mL | Activity (MIC, method of Example 1), Table 7 ([10]; with Sulbactam 4 mcg): 8 µg/mL | Activity (MIC, method of Example 1), Table 7 ([10]; with Sulbactam 8 mcg): 16 µg/mL | Activity (MIC, method of Example 1), Table 7 ([10]; with Tazobactam 4 mcg): 4 µg/mL | Activity (MIC, method of Example 1), Table 7 ([10]; with Tazobactam, (4 mcg)): 2 µg/mL | MIC [10, 17]: > 64 µg/mL | MIC ([10]; with Tazobactam 4 mcg): 4 µg/mL | MIC ([10]; with Tazobactam 8 mcg): 2 µg/mL | MIC ([11]; with Tazobactam 4 mcg): 4 µg/mL | MIC ([11]; with Tazobactam 8 mcg): 2 µg/mL | MIC [11, 18]: > 64 µg/mL

COCC1=C(C(=O)O)N2C(=O)[C@@H](NC(=O)/C(=N\OC)c3csc(N)n3)[C@H]2SC1 [Cefpodoxime]
MIC [7, 14]: > 128 µg/mL | MIC ([7]; with Tazobactam 4 mcg): >64 µg/mL | MIC ([7]; with Tazobactam 8 mcg): >64 µg/mL | MIC ([8]; with Tazobactam 4 mcg): >64 µg/mL | MIC ([8]; with Tazobactam 8 mcg): >64 µg/mL | MIC [8, 15]: > 128 µg/mL | MIC ([9]; with Tazobactam 4 mcg): >64 µg/mL | MIC ([9]; with Tazobactam 8 mcg): >64 µg/mL | MIC [9, 16]: > 128 µg/mL | MIC [10, 17]: > 128 µg/mL | MIC ([10]; with Tazobactam 4 mcg): > 64 µg/mL | MIC ([10]; with Tazobactam 8 mcg): > 64 µg/mL | MIC ([11]; with Tazobactam 4 mcg): >64 µg/mL | MIC ([11]; with Tazobactam 8 mcg): >64 µg/mL | MIC [11, 18]: > 128 µg/mL
